Patent publication EP1951308B1, “COMBINATION PREPARATIONS CONTAINING PHYSIOLOGICAL CELL MEMBRANE CONSTITUENTS INCLUDING PHOSPHATIDYLSERINE, CHOLINE AND A PYRIMIDINE NUCLEOSIDE/NUCLEOTIDE” (Susilo, Gisela, priority 2005, dated 2007)
Entries after “also recorded” stand apart in the source; their conditions may differ.

Test system: elektrische Hirnaktivität
Experiment: EEG recording (CATEEM system, 17 electrodes, 10/20 system) of electrical brain activity after a single oral intake, compared with placebo; studies 1, 3, 4 and 5
Type: in vivo, gesunden Testpersonen
Settings: for Hirnaktivität / Hirnleistung / Gehirnfunktion (Stimulierung): conclusion in words drawn from the EEG results; for delta Aktivität in Bezug auf die Referenz (Placebo) / Veränderung der delta Aktivität im Vergleich zu Placebo: oral, Augen offen; for Veränderung der delta Aktivität im Vergleich zu Placebo: during 4 Stunden after intake, studies 3-5; for neuro-regenerierende Wirkung: summary of Studienbeispiele 1 - 5, EEG, single oral dose; for delta Power (delta Aktivität): study 1, recording condition not stated, 1-4 h after oral intake

Row | Compound | Hirnaktivität / Hirnleistung / Gehirnfunktion (Stimulierung) | delta Aktivität in Bezug auf die Referenz (Placebo) (1 h after intake) [%] | delta Aktivität in Bezug auf die Referenz (Placebo) (2h after intake) [%] | delta Aktivität in Bezug auf die Referenz (Placebo) (4h after intake) [%] | Veränderung der delta Aktivität im Vergleich zu Placebo (result in words) | neuro-regenerierende Wirkung | Beta-Aktivitäten (beta Power) (result in words, study 1) | alpha Power (alpha Aktivität) (result in words, study 1) | delta Aktivitäten (result in words, study 1, Augen offen) | delta Power (delta Aktivität) (result in words) | delta Power (delta Aktivität) (result in words, listed as INDO I)
1 | C[N+](C)(C)CCOP(=O)([O-])OP(=O)(O)OC[C@H]1O[C@@H](n2ccc(N)nc2=O)[C@H](O)[C@@H]1O [CDP-Cholin, Cytidindiphosphocholin] | nicht bzw. nur leicht jedoch nicht signifikant steigern | 98 | 102 | 96 | geringfügige aber im Vergleich zum Placebo-Arm nicht signifikante Veränderung | - |  |  |  |  | 
2 | Phosphatidylserin | nicht bzw. nur leicht jedoch nicht signifikant steigern; also recorded: nicht beobachtet | 96 | 94 | 94 | keinen signifikanten Veränderungen | - | nur bei einem Messzeitpunkt nämlich 3 Stunden nach Verabreichung des Wirkstoffs eine statistisch signifikante Abnahme | leichter aber nicht signifikanter Zunahme | während der zweiten und dritten Stunde vermindert, aber keine statistische Signifikanz | Abnahme des delta Power | Abnahme der elektrischen delta Aktivität (delta Power), die jedoch nur 4 Stunden nach Applikation statistisch signifikant war
